According to patent US20230391778A1, “INDOLIN-2-ONE OR PYRROLO -PYRIDIN -2 -ONE DERIVATIVES” (Hoffmann-La Roche Inc., priority 2014, published 2023):
Each block holds one compound with its values, some of them ahead of it.

What was measured:
mouse ENT-1 transporter = biological target: T1, mouse ENT-1 transporter (Mus musculus, UniProt Q9JIM1); assay: Measure of adenosine transport activity (ENT1 adenosine uptake inhibition); format: cell-based; conditions: stable cells expressing mouse ENT-1, [2,8-3H]-adenosine 6 nM, 20 min
T1 construct: expressed in transfected cells
T1 sequence (Q9JIM1 1-460): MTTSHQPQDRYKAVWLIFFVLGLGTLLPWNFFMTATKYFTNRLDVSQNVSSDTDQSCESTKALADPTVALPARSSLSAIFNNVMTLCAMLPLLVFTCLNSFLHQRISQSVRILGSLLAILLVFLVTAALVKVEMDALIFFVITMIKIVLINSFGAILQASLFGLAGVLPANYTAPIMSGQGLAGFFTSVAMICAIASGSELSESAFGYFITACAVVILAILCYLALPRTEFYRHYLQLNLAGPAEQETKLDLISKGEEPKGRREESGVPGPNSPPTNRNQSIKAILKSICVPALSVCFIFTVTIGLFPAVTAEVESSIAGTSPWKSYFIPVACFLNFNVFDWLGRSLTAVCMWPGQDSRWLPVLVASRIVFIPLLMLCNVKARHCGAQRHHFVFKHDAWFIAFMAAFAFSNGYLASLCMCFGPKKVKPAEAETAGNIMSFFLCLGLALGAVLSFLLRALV
Outline: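 Stable mouse ENT-1 cells, 60,000/well, washed into pH 7.4 Hepes-Tris uptake buffer and incubated at RT with compound (1% DMSO final) for 20 min with shaking. Non-specific uptake defined with 10 μM NBTI; cell-associated radioactivity counted by scintillation after ice-cold washes.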

[1] = tested on: L-687,414-induced hyperlocomotion; assay: L-687,414-induced hyperlocomotion; format: in vivo, mouse; conditions: Dose ip 30 mg/kg, mice, 50 mg/kg s.c. L-687,414; for inhibition in vivo at 30 mg/kg: Mus musculus
Protocol: The described compounds of formula I reduce L-687,414-induced hyperlocomotion. This was assessed by using a computerized Digiscan 16 Animal Activity Monitoring System (Omnitech Electronics, Columbus, Ohio) to quantify locomotor activity. Animals were kept under a 12 h light/dark cycle and experiments were performed during the light period. Each activity monitoring chamber consisted of a Plexiglas box (41×41×28 cm; W×L×H) with sawdust bedding on the floor surrounded by invisible horizontal and vertical infrared sensor beams. The test boxes were divided by a Plexiglas cross providing each mouse with 20×20 cm of moving space. Cages were connected to a Digiscan Analyzer linked to a computer that constantly collected the beam status information. Records of photocell beam interruptions for individual animals were taken every 5 min over the duration of the experimental session and the sum of the first 6 periods was used as the final parameter. At least 8 mice were used in each treatment group. Compounds were administered either p.o. 15 min before a s.c. injection of 50 mg/kg of L-687,414, or i.p. at the same time as a s.c. injection of 50 mg/kg of L-687,414. Mice were then transferred from their home cage to the recording chambers for a 15-min habituation phase allowing free exploration of the new environment. Horizontal activity was then recorded for a 30-min time period. The % inhibition of L-687,414-induced hyperlocomotion was calculated according to the equation:
((Veh+L-687,414 horizontal activity−drug+L-687,414 horizontal activity)/Veh+L-687,414 horizontal activity)×100
ID50 values, defined as doses of each compound producing 50% inhibition of L-687,414-induced hyperlocomotion, were calculated by linear regression analysis of a dose-response data using an Excel-based computer-fitting program.
As data was not presupposed to be normally distributed, groups treated with test compounds were statistically compared with the control (vehicle-treated) group using one-tailed Mann Whitney U tests. In statistics, the Mann-Whitney U test (also called the Mann-Whitney-Wilcoxon (MWW) or Wilcoxon rank-sum test) is a non-parametric statistical hypothesis test for assessing whether one of two samples of independent observations tends to have larger values than the other. It is one of the most well-known non-parametric significance tests. […] P values given in table 1 are one-tailed since only decreases in locomotion were expected and tested for (Mann, H. B., Whitney, D. R. (1947), “On a Test of Whether one of Two Random Variables is Stochastically Larger than the Other”, Annals of Mathematical Statistics, 18 (1), 50-60).

Compound: 1-(2-cyclopropylpyrimidin-5-yl)-3,3-dimethyl-6-(2-methylpyrimidin-5-yl)indolin-2-one [Example 116]
- IC50 (mouse ENT-1 transporter): 230 nM
- L-687,414-induced hyperlocomotion Inhibition, ip [%] [1]: 92.8%

Compound: 3,3-dimethyl-1,6-bis(5-methylpyrazin-2-yl)indolin-2-one [Example 91]
- IC50 (mouse ENT-1 transporter): 1820 nM
- L-687,414-induced hyperlocomotion Inhibition, ip [%] [1]: 73.7%

Compound: Cc1ncc(-c2ccc3c(c2)N(c2ccncc2)C(=O)C3(C)C)cn1 [Example 1, 3,3-Dimethyl-6-(2-methylpyrimidin-5-yl)-1-(pyridin-4-yl)indolin-2-one]
- IC50 (mouse ENT-1 transporter): 431 nM
- inhibition in vivo at 30 mg/kg [1]: 95.4%

Compound: Cc1ncc(-c2ccc3c(c2)N(c2ccncn2)C(=O)C3(C)C)cn1 [Example 93, 3,3-dimethyl-6-(2-methylpyrimidin-5-yl)-1-(pyrimidin-4-yl)indolin-2-one]
- inhibition in vivo at 30 mg/kg [1]: 92.4%

Compound: Cc1cc(-c2cc3c(cn2)C(C)(C)C(=O)N3c2ccc(C)nn2)ccn1 [Example 109, 3,3-dimethyl-1-(6-methylpyridazin-3-yl)-6-(2-methylpyridin-4-yl)-1H-pyrrolo[3,2-c]pyridin-2(3H)-one]
- inhibition in vivo at 30 mg/kg [1]: 51.3%

Compound: Cc1cc(-c2cc3c(cn2)C(C)(C)C(=O)N3c2cnn(C)c2)ccn1 [Example 110, 3,3-dimethyl-1-(1-methyl-1H-pyrazol-4-yl)-6-(2-methylpyridin-4-yl)-1H-pyrrolo[3,2-c]pyridin-2(3H)-one]
- inhibition in vivo at 30 mg/kg [1]: 58.5%

Compound: Cc1cc(-c2cc3c(cn2)C(C)(C)C(=O)N3c2cn(C)cn2)ccn1 [Example 111, 3,3-dimethyl-1-(1-methyl-1H-imidazol-4-yl)-6-(2-methylpyridin-4-yl)-1H-pyrrolo[3,2-c]pyridin-2(3H)-one]
- inhibition in vivo at 30 mg/kg [1]: 51%

Compound: Cc1ncc(-c2ccc3c(c2)N(c2ncc(C)s2)C(=O)C3(C)C)cn1 [Example 125, 3,3-dimethyl-6-(2-methylpyrimidin-5-yl)-1-(5-methylthiazol-2-yl)indolin-2-one]
- IC50 (mouse ENT-1 transporter): 132 nM
- inhibition in vivo at 30 mg/kg [1]: 52%

Compound: Cc1ncc(-c2ccc3c(c2)N(c2cnnc(Cl)c2)C(=O)C3(C)C)cn1 [Example 126, 1-(6-chloropyridazin-4-yl)-3,3-dimethyl-6-(2-methylpyrimidin-5-yl)indolin-2-one]
- IC50 (mouse ENT-1 transporter): 2210 nM
- inhibition in vivo at 30 mg/kg [1]: 74.7%

Compound: Cc1ncc(-c2ccc3c(c2)N(c2nccnc2C)C(=O)C3(C)C)cn1 [Example 127, 3,3-dimethyl-1-(3-methylpyrazin-2-yl)-6-(2-methylpyrimidin-5-yl)indolin-2-one]
- IC50 (mouse ENT-1 transporter): 7730 nM
- inhibition in vivo at 30 mg/kg [1]: 72.8%

Further compounds by falling IC50 (mouse ENT-1 transporter), results first:

- IC50 (mouse ENT-1 transporter): 6750 nM
Compound: CC(C)c1cn(-c2ccc3c(c2)N(c2ccn(C)n2)C(=O)C3(C)C)cn1 [Example 37, 6-(4-Isopropylimidazol-1-yl)-3,3-dimethyl-1-(1-methylpyrazol-3-yl)indolin-2-one]
- inhibition in vivo at 30 mg/kg [1]: 73.8%

- IC50 (mouse ENT-1 transporter): 3600 nM
Compound: Cc1ncc(-c2ccc3c(c2)N(c2ccnnc2)C(=O)C3(C)C)cn1 [Example 120, 3,3-dimethyl-6-(2-methylpyrimidin-5-yl)-1-(pyridazin-4-yl)indolin-2-one]
- inhibition in vivo at 30 mg/kg [1]: 90.8%

- IC50 (mouse ENT-1 transporter): 2410 nM
Compound: Cc1ncc(-c2ccc3c(c2)N(c2cnccn2)C(=O)C3(C)C)cn1 [Example 77, 3,3-dimethyl-6-(2-methylpyrimidin-5-yl)-1-(pyrazin-2-yl)indolin-2-one]
- inhibition in vivo at 30 mg/kg [1]: 92.6%

- IC50 (mouse ENT-1 transporter): 1000 nM
Compound: Cc1ncc(-c2ccc3c(c2)N(c2ccnc(F)c2)C(=O)C3(C)C)cn1 [Example 45, 1-(2-Fluoropyridin-4-yl)-3,3-dimethyl-6-(2-methylpyrimidin-5-yl)indolin-2-one]
- inhibition in vivo at 30 mg/kg [1]: 80.5%

- IC50 (mouse ENT-1 transporter): 951 nM
Compound: Cc1ncc(-c2ccc3c(c2)N(c2ccn(C)n2)C(=O)C3(C)C)cn1 [Example 4, 3,3-Dimethyl-1-(1-methyl-1H-pyrazol-3-yl)-6-(2-methylpyrimidin-5-yl)indolin-2-one]
- inhibition in vivo at 30 mg/kg [1]: 93.4%

- IC50 (mouse ENT-1 transporter): 613 nM
Compound: Cc1ncc(-c2ccc3c(c2)N(c2cn(C)cn2)C(=O)C3(C)C)cn1 [Example 2, 3,3-Dimethyl-1-(1-methyl-1H-imidazol-4-yl)-6-(2-methylpyrimidin-5-yl)indolin-2-one]
- inhibition in vivo at 30 mg/kg [1]: 95.7%

- IC50 (mouse ENT-1 transporter): 340 nM
Compound: Cc1ncc(-c2ccc3c(c2)N(c2ccc(C)c(C)n2)C(=O)C3(C)C)cn1 [Example 70, 1-(5,6-dimethylpyridin-2-yl)-3,3-dimethyl-6-(2-methylpyrimidin-5-yl)indolin-2-one]
- inhibition in vivo at 30 mg/kg [1]: 93.5%

- IC50 (mouse ENT-1 transporter): 226 nM
Compound: Cc1cc(N2C(=O)C(C)(C)c3ccc(-c4cnc(C)nc4)cc32)sn1 [Example 124, 3,3-dimethyl-1-(3-methylisothiazol-5-yl)-6-(2-methylpyrimidin-5-yl)indolin-2-one]
- inhibition in vivo at 30 mg/kg [1]: 53.3%

- IC50 (mouse ENT-1 transporter): 203 nM
Compound: Cc1ncc(-c2ccc3c(c2)N(c2ncc(Cl)cn2)C(=O)C3(C)C)cn1 [Example 113, 1-(5-chloropyrimidin-2-yl)-3,3-dimethyl-6-(2-methylpyrimidin-5-yl)indolin-2-one]
- inhibition in vivo at 30 mg/kg [1]: 91.1%

- IC50 (mouse ENT-1 transporter): 102 nM
Compound: Cc1ncc(-c2ccc3c(c2)N(c2cncc(C4CC4)n2)C(=O)C3(C)C)cn1 [Example 97, 1-(6-cyclopropylpyrazin-2-yl)-3,3-dimethyl-6-(2-methylpyrimidin-5-yl)indolin-2-one]
- inhibition in vivo at 30 mg/kg [1]: 78.5%

- IC50 (mouse ENT-1 transporter): 47 nM
Compound: Cc1ncc(-c2ccc3c(c2)N(c2cnc(C4CC4)cn2)C(=O)C3(C)C)cn1 [Example 95, 1-(5-cyclopropylpyrazin-2-yl)-3,3-dimethyl-6-(2-methylpyrimidin-5-yl)indolin-2-one]
- inhibition in vivo at 30 mg/kg [1]: 76.9%
